Reference: patent publication US6423695B1, “Cytokine related treatments of disease” (Ribapharm, Inc., priority 1998, dated 2002)
Entries after “also recorded” stand apart in the source; their conditions may differ.

What was measured:
Th1 and Th2 responses = assay: Modulation of Th1 and Th2 responses at administered dose; type: in vivo
Description: The effects of 2-β-D-ribofuranosylthiazole-4-carboxamide (Tiazofurin), a synthetic C-nucleoside analogue, on GTP levels supports this view. Tumor cells are characterized by high levels of inosine monophosphate dehydrogenase (IMP DH) activity, and it is known that IMP DH is the rate-limiting enzyme of GTP biosynthesis. Weber, G., IMP Dehydrogenase and GTP as Targets in Human Leukemia Treatment. Adv. Exp. Med. Biol. 309B:287-292 (1991). […] Weber, G., Critical Issues in Chemotherapy with Tiazofurin, Adv. Enzyme Regul. 29:75-95 (1989). Typical initial doses of Tiazofurin are about 4,400 mg/m^2, with consolidation doses of about 1100 to 3300 mg/m^2. […] In one aspect of the present invention it is contemplated that much smaller doses of Tiazofurin, in the range of 1/10th to one-half that set forth above, would be sufficient to specifically suppress either a Th1 response or a Th2 response without greatly reducing the other response.
The effects of 1β-D-ribofuranosyl-1,2,4-triazole-3-carboxamide (Ribavirin) also supports the present theory. […] Yamada, Y. et al., Action of the Active Metabolites of Tiazofurin and Ribavirin on Purified IMP Dehydrogenase, Biochem. 27:2193-2196 (1988). Ribavirin proceeds under a different mechanism than Tiazofurin in inhibiting IMP DH, however, acting on a different site on the enzyme molecule. Ribavirin is converted to its active metabolite, ribavirin-monophosphate (RMP), which inhibits the enzyme at the IMP-XMP site of IMP DH. As with Tiazofurin, the affinity of Ribavirin's active form to the enzyme is higher than that of the natural metabolite.
In another aspect of the invention, an abnormality reflected in increased response in one group of cytokines is treated by administering a nucleoside or other compound that increases response in another group of cytokines. Thus, for example, a common rapid onset type of allergy results in an abnormally elevated Th2 response.
It is also contemplated that an abnormality reflected in increased response in one group of cytokines can be treated by administering a nucleoside that increases response in another group of cytokines.

guanine nucleotide pools = conditions: cited from earlier work
[1] = tested on: inosine monophosphate dehydrogenase (IMP DH); conditions: cited from earlier work
tumors = conditions: in vivo; cited from earlier work
[2] = approximately 600 to 1000 mg/day

Row | SMILES | Th1 and Th2 responses (Th1 and Th2 responses; Tiazofurin initial doses about 4,400 mg/m^2, consolidation doses about 1100 to 3300 mg/m^2) | guanine nucleotide pools (guanine nucleotide pools) | IMP DH activity [1] | tumor remission (tumors) | Th1 response (Th1 and Th2 responses; [2]) | Th2 response (Th1 and Th2 responses; [2]) | Th1 response (Th1 and Th2 responses; low dosages of about 500 mg/day to about 1,000 mg/day) | Th1 and Th2 responses (Th1 and Th2 responses; relatively high doses, approximately 2200 mg/m^2 or about 1200-1500 mg/day for an adult)
1 | NC(=O)c1csc([C@@H]2O[C@H](CO)[C@@H](O)[C@H]2O)n1 [Tiazofurin, 2-β-D-ribofuranosylthiazole-4-carboxamide] | greatly reduced | deplete guanine nucleotide pools | selectively block IMP DH activity | forces various tumors into remission | – | – | – | –
2 | NC(=O)c1ncn([C@@H]2O[C@H](CO)[C@@H](O)[C@H]2O)n1 [Ribavirin, 1β-D-ribofuranosyl-1,2,4-triazole-3-carboxamide] | – | – | inhibit IMP DH | – | promotes a Th1 response; also recorded: Th1 response is induced | suppresses a Th2 response; also recorded: Th2 response is suppressed | increases Th1 response | both Th1 and Th2 responses are inhibited
